Results reported in US20060004028A1, “Novel PARP inhibitor” (MOCHIDA PHARMACEUTICAL CO., LTD., priority 2002, published 2006).

Columns and labels:
U937 cells = test: Inhibitory effect against active oxygen-induced cell injury with U937 cells; assay type: cell-based; settings: propidium iodide fluorescence
Procedure: U937 cells were suspended in RPMI 1640 without serum, and were seeded at a concentration of 1×10^4 cells/50 μL/well in a solid assay plate (produced by Corning, black, tissue culture treated, Type: 3916). After adding 1 μL/well of test compound solution in DMSO, 50 μL/well of 20 mM hydrogen peroxide solution was added, followed by incubation at 37° C. for 3 hours in an atmosphere of 5% CO2. Then, 2 μL/well of 1.5 mM propidium iodide solution was added and incubation was further carried out at 37° C. for 1 hour. The fluorescence was measured with a fluorescence plate reader ARVO (excitation wavelength: 530 nm, fluorescence wavelength: 620 nm) to investigate hydrogen peroxide solution-induced necrosis inhibition.

PARP = molecular target: T1, PARP (Homo sapiens, UniProt P09874); test: Measurement of PARP inhibitory activity (PARP Inhibition Assay kit, ADP-ribosylated histone); assay type: biochemical; settings: HSA PARP Enzyme, histone-coated plate, absorbance at 450 nm
T1 construct: purchased Travigen (Trevigen) 4669-96-K
Procedure: PARP activity is determined by measuring the amount of ADP-ribosylated histone protein applied onto an assay plate according to the manual of a measurement kit “PARP Inhibition Assay” (produced by Travigen, catalog number: 4669-96-K). Specifically, 25 μL/well of “2×PARP cocktail” (containing 800 μM of NAD, 50 μM of biotinylated NAD, and denatured DNA) was added to each well of assay plates (96-well multiplate) previously coated with histone protein. Further added was 12.5 μL/well of test compound diluted with “PARP Buffer” (50 mM Tris-hydrochloric acid buffer (pH 8.0) containing 25 mM of MgCl2) and 12.5 μL/well (final concentration: 0.3 unit/50 μL/well) of “HSA PARP Enzyme” diluted with “PARP Buffer” in that order. The mixture was allowed to react at room temperature for 30 minutes. Enzyme reaction of PARP was suspended by discarding the reaction solution and rinsing with a phosphate buffer. Then, 50 μL/well of “Strep-HRP” (streptavidin-labeled horseradish peroxidase) was added and allowed to react at 37° C. for 20 to 30 minutes to bind to biotin-labeled ADP-ribosylated histone. After the reaction solution was discarded, resultings were rinsed with a phosphate buffer, and 50 μL/well of calorimetric substrate TACS-Sapphire was added to the mixture to react at room temperature for 5 to 10 minutes in the dark.
The reaction was terminated by adding 50 μL/well of 0.2 N hydrochloric acid solution, and the absorbance at 450 nm was measured with a microplate reader.

[1] = Homo sapiens, U-937, hydrogen peroxide-induced necrosis

T1 sequence (P09874 whole entry): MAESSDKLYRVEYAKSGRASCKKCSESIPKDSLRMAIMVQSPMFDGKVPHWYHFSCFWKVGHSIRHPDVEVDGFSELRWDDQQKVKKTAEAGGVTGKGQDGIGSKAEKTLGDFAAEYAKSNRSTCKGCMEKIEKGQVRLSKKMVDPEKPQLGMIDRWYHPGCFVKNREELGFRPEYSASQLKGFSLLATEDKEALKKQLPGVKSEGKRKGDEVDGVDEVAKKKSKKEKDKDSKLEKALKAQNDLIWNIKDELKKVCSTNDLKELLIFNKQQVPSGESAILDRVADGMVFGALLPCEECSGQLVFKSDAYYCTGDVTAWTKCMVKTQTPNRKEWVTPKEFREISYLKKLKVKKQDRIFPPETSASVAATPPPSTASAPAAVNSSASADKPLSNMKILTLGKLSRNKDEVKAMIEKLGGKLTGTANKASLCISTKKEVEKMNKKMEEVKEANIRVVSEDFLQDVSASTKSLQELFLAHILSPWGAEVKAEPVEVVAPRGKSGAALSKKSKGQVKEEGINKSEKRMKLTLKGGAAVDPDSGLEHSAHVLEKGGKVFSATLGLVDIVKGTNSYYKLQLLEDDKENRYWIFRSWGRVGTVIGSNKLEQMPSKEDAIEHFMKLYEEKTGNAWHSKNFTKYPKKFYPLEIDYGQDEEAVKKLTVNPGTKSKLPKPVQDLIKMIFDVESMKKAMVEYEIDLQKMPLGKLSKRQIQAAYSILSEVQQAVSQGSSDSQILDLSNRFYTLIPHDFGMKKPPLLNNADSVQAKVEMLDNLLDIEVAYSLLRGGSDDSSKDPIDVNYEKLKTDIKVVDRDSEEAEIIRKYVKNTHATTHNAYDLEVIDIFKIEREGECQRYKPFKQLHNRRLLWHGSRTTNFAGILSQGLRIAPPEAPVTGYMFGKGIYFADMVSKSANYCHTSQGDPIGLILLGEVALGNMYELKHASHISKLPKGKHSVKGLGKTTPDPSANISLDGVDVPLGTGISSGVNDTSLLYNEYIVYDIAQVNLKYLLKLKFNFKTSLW

| melting point [°C] | IC50 (PARP) [nM] | Molecule | IC50 (U937 cells; [1]) [nM] | IC50 (U937 cells; hydrogen peroxide-induced necrosis) [nM] |
| --- | --- | --- | --- | --- |
| 237.8 to 239.7 | 49 | CN(C)c1ccc([C@@H]2NC(=O)c3cccc4c3N2CC[C@@H]4N)cc1 (racemic) [Example 129, Mixture of (3R,7S)-7-amino-3-(4-N,N-dimethylaminophenyl)-6,7-dihydro-3H,5H-pyrido[3,2,1-ij]quinazoline-1(2H)-one and (3S,7R)-7-amino-3-(4-N,N-dimethylaminophenyl)-6,7-dihydro-3H,5H-pyrido[3,2,1-ij]quinazoline-1(2H)-one] |  |  |
| 128.5 to 137.4 | 42 | COc1ccc([C@H]2NC(=O)c3cccc4c3N2CC[C@@H]4N)cc1F (racemic) [Example 99, Mixture of (3S,7S)-7-amino-3-(3-fluoro-4-methoxyphenyl)-6,7-dihydro-3H,5H-pyrido[3,2,1-ij]quinazoline-1(2H)-one and (3R,7R)-7-amino-3-(3-fluoro-4-methoxyphenyl)-6,7-dihydro-3H,5H-pyrido[3,2,1-ij]quinazoline-1(2H)-one] |  |  |
| 127 to 131.2 | 170 | N[C@H]1CCN2c3c(cccc31)C(=O)N[C@@H]2c1cccnc1 (racemic) [Example 100, Mixture of (3S,7S)-7-amino-3-(3-pyridyl)-6,7-dihydro-3H,5H-pyrido[3,2,1-ij]quinazoline-1(2H)-one and (3R,7R)-7-amino-3-(3-pyridyl)-6,7-dihydro-3H,5H-pyrido[3,2,1-ij]quinazoline-1(2H)-one] |  |  |
| 232.3 to 238.7 |  | NC1CCN2c3c(cccc31)C(=O)NC2c1ccc(C(=O)O)cc1 (stereo not shown) [Example 127, 7-amino-3-(4-carboxyphenyl)-6,7-dihydro-3H,5H-pyrido[3,2,1-ij]quinazolinone-1-(2H)-one] |  |  |
| 252.3 to 253.1 |  | COc1ccc(C2NC(=O)c3cccc4c3N2CCC4NC(=O)C2CCN(C)CC2)cc1 (stereo not shown) [Example 134, 7-(1-methylpiperidine-4-yl)carbonylamino-3-(4-methoxy-phenyl)-6,7-dihydro-3H,5H-pyrido[3,2,1-ij]quinazoline-1(2H)-one] |  |  |
| 96.8 to 97.6 | 6 | N[C@H]1CCN2c3c(cccc31)C(=O)N[C@@H]2c1ccc(OCCO)cc1 (racemic) [Example 93, Mixture of (3S,7S)-7-amino-3-(4-hydroxyethoxyphenyl)-6,7-dihydro-3H,5H-pyrido[3,2,1-ij]quinazoline-1(2H)-one and (3R,7R)-7-amino-3-(4-hydroxyethoxyphenyl)-6,7-dihydro-3H,5H-pyrido[3,2,1-ij]quinazoline-1(2H)-one] |  |  |
| 143.3 to 154.6 |  | COc1ccc(C2NC(=O)c3cccc4c3N2CCC4)cc1 (stereo not shown) [Example 103, 3-(4-methoxyphenyl)-6,7-dihydro-3H,5H-pyrido[3,2,1-ij]quinazoline-1(2H)-one] |  |  |

The remaining lines, values behind:

| Molecule | melting point [°C] | IC50 (PARP) [nM] | IC50 (U937 cells; [1]) [nM] | IC50 (U937 cells; hydrogen peroxide-induced necrosis) [nM] |
| --- | --- | --- | --- | --- |
| COc1ccc(C2NC(=O)c3cccc4c3N2CCC4=NO)cc1F (stereo not shown) [Example 66, 3-(3-fluoro-4-methoxyphenyl)-7-hydroxyimino-6,7-dihydro-3H,5H-pyrido[3,2,1-ij]quinazoline-1(2H)-one] | 260.3 to 261.6 |  | 1700 |  |
| COc1ccc(C2NC(=O)c3cccc4c3N2CCC4N)cc1 (stereo not shown) [Example 4, 7-amino-3-(4-methoxyphenyl)-6,7-dihydro-3H,5H-pyrido[3,2,1-ij]quinazolinone-1(2H)-one] | 139.7 to 145.9 | 58 | 610 |  |
| O=C1CCN2c3c1cccc3C(=O)NC2c1ccc([N+](=O)[O-])cc1 (stereo not shown) [Example 17, 3-(4-nitrophenyl)-6,7-dihydro-3H,5H-pyrido[3,2,1-ij]quinazoline-1,7(2H)-dione] | 198.8 to 209.3 | 240 | 1200 |  |
| Mixture of (3S,7S)-7-amino-3-(4-bromophenyl)-6,7-dihydro-3H,5H-pyrido[3,2,1-ij]quinazoline-1(2H)-one and (3R,7R)-7-amino-3-(4-bromophenyl)-6,7-dihydro-3H,5H-pyrido[3,2,1-ij]quinazoline-1(2H)-one [Example 123] |  | 110 |  | 300 |
| CON=C1CCN2c3c(cccc31)C(=O)NC2c1ccc(C(F)(F)F)cc1 (stereo not shown) [Example 62, 7-methoxyimino-3-(4-trifluoromethylphenyl)-6,7-dihydro-3H,5H-pyrido[3,2,1-ij]quinazoline-1(2H)-one] | 199.4 to 207.2 |  |  |  |
| COc1cc(C2NC(=O)c3cccc4c3N2CCC4=O)ccc1F (stereo not shown) [Example 36, 3-(4-fluoro-3-methoxyphenyl)-6,7-dihydro-3H,5H-pyrido[3,2,1-ij]quinazoline-1,7(2H)-dione] | 171 to 172.9 |  |  |  |
| COc1ccc(C2NC(=O)c3ccc(Cl)c4c3N2CCC4=O)cc1 (stereo not shown) [Example 25, 8-chloro-3-(4-methoxyphenyl)-6,7-dihydro-3H,5H-pyrido[3,2,1-ij]quinazoline-1,7(2H)-dione] | 209.4 to 213.1 |  |  |  |
| COc1ccc2cc(C3NC(=O)c4cccc5c4N3CCC5=O)ccc2c1 (stereo not shown) [Example 47, 3-(6-methoxynaphthalene-2-yl)-6,7-dihydro-3H,5H-pyrido[3,2,1-ij]quinazoline-1,7(2H)-dione] | 191.4 to 195.5 |  |  |  |
| Mixture of (3S,7S)-7-amino-3-(3,4-difluorophenyl)-6,7-dihydro-3H,5H-pyrido[3,2,1-ij]quinazoline-1(2H)-one and (3R,7R)-7-amino-3-(3,4-difluorophenyl)-6,7-dihydro-3H,5H-pyrido[3,2,1-ij]quinazoline-1(2H)-one [Example 122] |  | 120 |  |  |
| COc1cc(C2NC(=O)c3cccc4c3N2CCC4=NO)ccc1F (stereo not shown) [Example 63, 3-(4-fluoro-3-methoxyphenyl)-7-hydroxyimino-6,7-dihydro-3H,5H-pyrido[3,2,1-ij]quinazoline-1(2H)-one] | 245.4 to 246.6 |  |  |  |
| O=C1CCN2c3c1cccc3C(=O)NC2c1cccnc1 (stereo not shown) | 190 to 191.6 |  |  |  |
| O=C1CCN2c3c1cccc3C(=O)NC2c1ccc(Br)cc1 (stereo not shown) [Example 21, 3-(4-bromophenyl)-6,7-dihydro-3H,5H-pyrido[3,2,1-ij]quinazoline-1,7(2H)-dione] | 206.2 to 214 |  |  |  |
| O=C1NC(c2ccc(F)cc2)N2CCC(=NO)c3cccc1c32 (stereo not shown) [Example 76, 3-(4-fluorophenyl)-7-hydroxyimino-6,7-dihydro-3H,5H-pyrido[3,2,1-ij]quinazoline-1(2H)-one] | 247.1 to 252.3 |  |  |  |
| O=C1NC(c2ccc([N+](=O)[O-])cc2)N2CCC(=NO)c3cccc1c32 (stereo not shown) [Example 73, 7-hydroxyimino-3-(4-nitrophenyl)-6,7-dihydro-3H,5H-pyrido[3,2,1-ij]quinazoline-1(2H)-one] | 220 to 224.7 |  |  |  |
